Measured values as given in ChEMBL document CHEMBL1201862, “PubChem BioAssay data set” (2004).
Calls of active or inactive are those of the source.

Key:
cells [1] = test: cells
Vero [2] = test: cells; type: functional; conditions: Chlorocebus sabaeus
[3] = HEp-2 cell cytotoxicity, dose response, cytotoxicity control for RSV inhibitor project, HTS (AID 2410); type: functional; conditions: human respiratory syncytial virus
H4 = test: Luminescence Cell-Based Dose Response HTS to Identify Activators of 5'UTR Stem-Loop Driven Prion Protein mRNA Translation in H4 Neuroglioblastoma Cells. [Related pubchem assays: 1829 (Project Summary), 1814 (Primary HTS)]; type: functional; conditions: Homo sapiens
[4] = Luminescence Cell-Based Dose Response HTS to Identify Activators of Luciferase Translation or Activity in H4 […] Cells. [Related pubchem assays: 1829 (Project Summary), 1814 (Primary HTS)]; type: functional
[5] = Luminescence Cell-Based Dose Confirmation HTS to Identify Activators of 5'UTR Stem-Loop Driven Alpha-Synuclein mRNA Translation in H4 Neuroglioblastoma Cells. [Related pubchem assays: 1829 (Project Summary), 1814 (Primary HTS)]; type: functional
Vero [6] = test: cells; type: functional, cell-based; conditions: Chlorocebus sabaeus
[7] = target: DNA dC->dU-editing enzyme APOBEC-3A (Homo sapiens, UniProt P31941); test: Dose Response confirmation of small molecule APOBEC3A DNA Deaminase Inhibitors via a fluorescence-based single-stranded DNA deaminase assay. [Related pubchem assays (depositor defined):AID493011, AID493024]; type: functional
[8] = target: DNA dC->dU-editing enzyme APOBEC-3G (Homo sapiens, UniProt Q9HC16); type: functional;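 further: Dose-response counterscreen measuring inhibition of APOBEC3G DNA deaminase activity, run while confirming APOBEC3A inhibitors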
[9] = growth suppression of beta-catenin-knockout colon cells, dose response, cell-based, HCT116, human colon tumor (AID 1045); type: functional;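 further: HCT116 colon tumor cells with beta catenin knocked out; cells exposed to compound for 60 hours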
[10] = target: Voltage-dependent T-type calcium channel subunit alpha-1H (Homo sapiens, UniProt O95180); type: functional;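 further: channel activity triggered by adding a high calcium stimulation buffer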
[11] = growth suppression of PTEN-null colon cells, dose response, cell-based, HCT116 PTEN knockout (AID 1047); type: functional;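 further: HCT116 colon tumor cells with PTEN knocked out; cells exposed to compound for 60 hours before readout; potency for loss of cell viability measured by luminescence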
SUMO-activating enzyme = SUMO-activating enzyme (Homo sapiens, UniProt Q9UBT2); test: SUMOylation inhibitor hit validation, confirmation, SUMOylation inhibitor project, biochemical, AlphaScreen (AID 2018); type: functional
INS1 = test: beta cell apoptosis inhibitors, cytokine rescue, dose response, luminescence, retest (AID 449756); type: functional, cell-based; conditions: Rattus norvegicus;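 further: cell death triggered by IL-1 beta plus TNF-alpha plus IFN-gamma mixture; protective hits raise ATP signal compared with cytokine alone wells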
[12] = target: G-protein coupled receptor 55 (Homo sapiens, UniProt Q9Y2T6); test: GPR55 antagonists blocking LPI-driven arrestin recruitment, primary screen, imaging, U2OS, beta-arrestin-GFP, LPI agonist (AID 2013); type: functional;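 further: antagonist potency measured as reduced agonist-driven arrestin aggregation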
[13] = target: Dual specificity tyrosine-phosphorylation-regulated kinase 1A (Rattus norvegicus, UniProt Q63470); type: biochemical, Homo sapiens
[14] = Luminescence Cell-Based Dose Retest to Confirm Inhibitors of Cancer Stem Cells. [Related pubchem assays (depositor defined):AID2717, AID2721]; type: functional; conditions: Homo sapiens
fMet-Leu-Phe receptor = target: T1, fMet-Leu-Phe receptor (Homo sapiens, UniProt P21462); test: FPR ligands, dose response (AID 519); type: functional
T1 sequence (P21462 whole entry): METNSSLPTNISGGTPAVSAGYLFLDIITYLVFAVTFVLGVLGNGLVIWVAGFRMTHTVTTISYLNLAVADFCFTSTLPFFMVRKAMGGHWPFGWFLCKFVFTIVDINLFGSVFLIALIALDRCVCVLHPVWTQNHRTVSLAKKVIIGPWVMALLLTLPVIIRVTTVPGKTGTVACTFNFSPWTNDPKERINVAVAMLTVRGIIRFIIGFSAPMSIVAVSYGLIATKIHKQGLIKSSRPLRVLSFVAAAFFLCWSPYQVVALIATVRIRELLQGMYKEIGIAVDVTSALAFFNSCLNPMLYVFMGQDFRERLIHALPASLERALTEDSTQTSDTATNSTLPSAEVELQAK

cells [15] = type: functional, cell-based
cells [16] = type: functional, cell-based; remark: listed apart in the source
cells [17] = type: functional
[18] = HepG2 cell cytotoxicity, dose response, cytotoxicity control for non-replicating M. tuberculosis project (AID 489018); type: functional; conditions: Mycobacterium tuberculosis
H9c2 = test: cells; type: functional, cell-based; conditions: Rattus norvegicus, H9c2, Myocardium
[19] = Vero E6 cell cytotoxicity, dose response, cytotoxicity control for non-replicating M. tuberculosis project, secondary assay (AID 492998); type: functional, VeroE6; conditions: Vero C1008
[20] = THP-1 cell cytotoxicity, dose response, cytotoxicity control for non-replicating M. tuberculosis project (AID 489025); type: functional
Mucolipin-3 = target: T2, Mucolipin-3 (Homo sapiens, UniProt Q8TDD5); test: Dose response cell-based high-throughput screening assay for agonists of the transient receptor potential channel ML3 (TRPML3). [Related pubchem assays: 1526, 1424, 1448 ]; type: functional
T2 sequence (Q8TDD5 whole entry): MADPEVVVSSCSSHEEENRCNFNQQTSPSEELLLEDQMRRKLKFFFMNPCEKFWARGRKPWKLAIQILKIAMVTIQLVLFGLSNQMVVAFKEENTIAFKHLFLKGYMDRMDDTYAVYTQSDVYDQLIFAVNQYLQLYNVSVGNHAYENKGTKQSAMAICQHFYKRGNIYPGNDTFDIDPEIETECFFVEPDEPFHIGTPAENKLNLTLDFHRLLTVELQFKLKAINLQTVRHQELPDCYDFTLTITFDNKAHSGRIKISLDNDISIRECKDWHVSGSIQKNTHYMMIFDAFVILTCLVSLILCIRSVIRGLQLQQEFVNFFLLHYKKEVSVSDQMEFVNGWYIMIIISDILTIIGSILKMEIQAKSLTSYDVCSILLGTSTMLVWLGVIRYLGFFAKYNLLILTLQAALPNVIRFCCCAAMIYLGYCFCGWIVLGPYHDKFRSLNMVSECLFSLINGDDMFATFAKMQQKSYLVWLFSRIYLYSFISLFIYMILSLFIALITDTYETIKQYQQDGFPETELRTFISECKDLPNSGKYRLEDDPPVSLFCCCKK

Ion channel NompC = Ion channel NompC (Danio rerio, UniProt Q7T1G6); test: Fluorescence counterscreen assay for TRPML3 agonists: dose response cell-based high-throughput screening assay to identify agonists of the transient receptor potential channel N1 (TRPN1). [Related pubchem assays: 1526, 1424, 1448 ]; type: functional
[21] = target: T3, Calpain-2 catalytic subunit (Sus scrofa, UniProt P43367); test: pig calpain II inhibitor potency, dose response, biochemical, fluorogenic peptide substrate (AID 1420); type: functional
T3 sequence (P43367 whole entry): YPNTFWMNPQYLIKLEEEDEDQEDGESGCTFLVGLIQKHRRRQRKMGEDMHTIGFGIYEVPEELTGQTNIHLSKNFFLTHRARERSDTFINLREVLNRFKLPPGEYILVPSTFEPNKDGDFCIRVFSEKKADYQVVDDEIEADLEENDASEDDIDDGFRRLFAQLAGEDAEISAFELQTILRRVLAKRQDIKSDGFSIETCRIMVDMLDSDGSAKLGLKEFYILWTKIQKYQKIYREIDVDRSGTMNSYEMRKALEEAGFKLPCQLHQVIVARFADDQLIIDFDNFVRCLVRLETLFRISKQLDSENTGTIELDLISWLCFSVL

[22] = target: T4, Rac GTPase-activating protein 1 (Homo sapiens, UniProt Q9H0H5); test: MgcRacGAP GTPase-activating activity inhibitors, confirmation, biochemical, ADP Hunter fluorescence, primary and confirmatory (AID 624330); type: functional
T4 sequence (Q9H0H5 whole entry): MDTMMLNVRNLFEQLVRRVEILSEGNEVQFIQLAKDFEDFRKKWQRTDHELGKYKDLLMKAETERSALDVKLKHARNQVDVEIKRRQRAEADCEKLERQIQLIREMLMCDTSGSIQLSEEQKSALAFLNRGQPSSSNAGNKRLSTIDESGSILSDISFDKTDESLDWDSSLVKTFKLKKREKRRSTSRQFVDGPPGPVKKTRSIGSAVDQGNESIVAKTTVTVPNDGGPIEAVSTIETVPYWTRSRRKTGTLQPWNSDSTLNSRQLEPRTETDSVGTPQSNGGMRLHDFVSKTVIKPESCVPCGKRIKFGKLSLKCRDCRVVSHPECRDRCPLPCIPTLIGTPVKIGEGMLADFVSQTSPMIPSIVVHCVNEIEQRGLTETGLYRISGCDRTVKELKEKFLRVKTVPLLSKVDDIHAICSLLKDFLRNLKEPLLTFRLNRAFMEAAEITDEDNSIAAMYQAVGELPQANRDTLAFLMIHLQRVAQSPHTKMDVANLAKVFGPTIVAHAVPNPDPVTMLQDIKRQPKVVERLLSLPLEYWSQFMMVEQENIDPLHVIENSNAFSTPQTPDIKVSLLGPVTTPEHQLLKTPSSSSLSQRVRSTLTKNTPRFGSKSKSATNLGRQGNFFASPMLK

Sequence of DNA dC->dU-editing enzyme APOBEC-3A (P31941 whole entry): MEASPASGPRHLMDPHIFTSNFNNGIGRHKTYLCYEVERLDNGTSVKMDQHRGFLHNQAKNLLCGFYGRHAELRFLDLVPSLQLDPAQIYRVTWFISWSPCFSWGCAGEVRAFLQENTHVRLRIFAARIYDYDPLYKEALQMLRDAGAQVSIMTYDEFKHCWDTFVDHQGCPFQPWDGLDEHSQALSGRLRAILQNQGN
Sequence of Voltage-dependent T-type calcium channel subunit alpha-1H (O95180 whole entry): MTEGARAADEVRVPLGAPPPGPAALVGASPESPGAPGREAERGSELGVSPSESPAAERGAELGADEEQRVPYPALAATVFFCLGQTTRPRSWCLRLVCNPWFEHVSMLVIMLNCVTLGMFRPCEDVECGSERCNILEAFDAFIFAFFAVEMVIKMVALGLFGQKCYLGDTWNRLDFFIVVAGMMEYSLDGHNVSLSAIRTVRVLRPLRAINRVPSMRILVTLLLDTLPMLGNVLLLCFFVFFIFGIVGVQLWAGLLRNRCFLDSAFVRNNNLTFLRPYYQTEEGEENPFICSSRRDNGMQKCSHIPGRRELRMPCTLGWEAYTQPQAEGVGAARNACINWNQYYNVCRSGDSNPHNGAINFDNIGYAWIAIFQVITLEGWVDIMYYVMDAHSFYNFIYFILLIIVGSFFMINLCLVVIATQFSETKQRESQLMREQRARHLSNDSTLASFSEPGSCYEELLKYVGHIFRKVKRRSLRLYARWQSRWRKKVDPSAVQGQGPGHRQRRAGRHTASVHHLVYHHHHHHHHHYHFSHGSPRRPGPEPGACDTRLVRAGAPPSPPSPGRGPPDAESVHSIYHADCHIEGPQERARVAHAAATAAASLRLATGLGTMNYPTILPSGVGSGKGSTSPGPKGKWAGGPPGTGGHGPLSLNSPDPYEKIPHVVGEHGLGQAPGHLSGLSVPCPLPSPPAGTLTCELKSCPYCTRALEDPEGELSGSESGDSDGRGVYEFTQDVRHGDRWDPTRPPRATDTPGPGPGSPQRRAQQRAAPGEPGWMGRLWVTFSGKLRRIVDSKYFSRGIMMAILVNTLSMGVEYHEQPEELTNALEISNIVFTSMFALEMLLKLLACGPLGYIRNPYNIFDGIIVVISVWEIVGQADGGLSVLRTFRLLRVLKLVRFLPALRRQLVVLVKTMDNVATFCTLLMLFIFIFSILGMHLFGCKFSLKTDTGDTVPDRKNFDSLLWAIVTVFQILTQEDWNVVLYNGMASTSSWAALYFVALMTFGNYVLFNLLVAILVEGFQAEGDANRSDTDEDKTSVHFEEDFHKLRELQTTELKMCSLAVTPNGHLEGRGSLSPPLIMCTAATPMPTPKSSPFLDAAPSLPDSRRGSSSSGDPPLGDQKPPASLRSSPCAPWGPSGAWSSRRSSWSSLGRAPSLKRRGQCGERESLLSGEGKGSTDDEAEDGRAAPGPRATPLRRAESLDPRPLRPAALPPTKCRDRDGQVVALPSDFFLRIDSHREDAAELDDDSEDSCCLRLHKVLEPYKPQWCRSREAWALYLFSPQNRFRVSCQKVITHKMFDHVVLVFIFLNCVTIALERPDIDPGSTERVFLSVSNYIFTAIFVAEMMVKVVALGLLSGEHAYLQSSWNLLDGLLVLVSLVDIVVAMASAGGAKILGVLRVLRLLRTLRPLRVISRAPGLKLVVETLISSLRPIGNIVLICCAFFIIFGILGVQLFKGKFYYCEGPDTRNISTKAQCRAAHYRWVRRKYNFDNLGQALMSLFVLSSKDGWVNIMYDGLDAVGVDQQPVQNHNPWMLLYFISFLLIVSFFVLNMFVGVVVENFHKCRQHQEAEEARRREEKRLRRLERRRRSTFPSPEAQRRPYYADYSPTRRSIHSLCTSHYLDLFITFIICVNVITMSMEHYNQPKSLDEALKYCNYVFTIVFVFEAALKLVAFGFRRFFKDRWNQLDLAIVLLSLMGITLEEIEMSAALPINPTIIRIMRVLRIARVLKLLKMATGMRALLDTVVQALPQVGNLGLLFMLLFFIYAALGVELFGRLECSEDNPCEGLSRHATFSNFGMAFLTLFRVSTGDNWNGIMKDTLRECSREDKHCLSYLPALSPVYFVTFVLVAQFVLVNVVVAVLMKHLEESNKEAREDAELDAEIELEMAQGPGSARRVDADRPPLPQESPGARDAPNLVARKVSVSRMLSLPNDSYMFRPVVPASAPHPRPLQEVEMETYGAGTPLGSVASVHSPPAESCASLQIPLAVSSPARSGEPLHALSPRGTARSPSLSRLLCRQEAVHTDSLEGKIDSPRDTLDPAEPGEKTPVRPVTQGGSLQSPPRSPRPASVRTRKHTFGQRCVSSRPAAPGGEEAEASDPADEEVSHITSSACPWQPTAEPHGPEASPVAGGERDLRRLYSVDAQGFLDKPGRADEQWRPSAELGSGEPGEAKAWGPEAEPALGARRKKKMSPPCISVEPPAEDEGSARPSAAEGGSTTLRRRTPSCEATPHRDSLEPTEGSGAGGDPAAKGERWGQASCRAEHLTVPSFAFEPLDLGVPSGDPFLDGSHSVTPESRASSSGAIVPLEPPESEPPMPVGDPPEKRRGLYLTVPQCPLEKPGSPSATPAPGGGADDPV
Sequence of DNA dC->dU-editing enzyme APOBEC-3G (Q9HC16 whole entry): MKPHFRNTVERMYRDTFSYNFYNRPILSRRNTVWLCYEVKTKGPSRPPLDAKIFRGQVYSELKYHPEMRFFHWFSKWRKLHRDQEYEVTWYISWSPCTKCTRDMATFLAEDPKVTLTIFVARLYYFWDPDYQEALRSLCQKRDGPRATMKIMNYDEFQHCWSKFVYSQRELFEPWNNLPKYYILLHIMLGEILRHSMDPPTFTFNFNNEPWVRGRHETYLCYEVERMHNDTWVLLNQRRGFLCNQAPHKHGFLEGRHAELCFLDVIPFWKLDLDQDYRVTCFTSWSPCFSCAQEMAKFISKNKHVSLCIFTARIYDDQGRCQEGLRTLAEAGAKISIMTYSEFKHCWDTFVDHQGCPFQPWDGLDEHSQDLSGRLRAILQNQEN
Sequence of G-protein coupled receptor 55 (Q9Y2T6 whole entry): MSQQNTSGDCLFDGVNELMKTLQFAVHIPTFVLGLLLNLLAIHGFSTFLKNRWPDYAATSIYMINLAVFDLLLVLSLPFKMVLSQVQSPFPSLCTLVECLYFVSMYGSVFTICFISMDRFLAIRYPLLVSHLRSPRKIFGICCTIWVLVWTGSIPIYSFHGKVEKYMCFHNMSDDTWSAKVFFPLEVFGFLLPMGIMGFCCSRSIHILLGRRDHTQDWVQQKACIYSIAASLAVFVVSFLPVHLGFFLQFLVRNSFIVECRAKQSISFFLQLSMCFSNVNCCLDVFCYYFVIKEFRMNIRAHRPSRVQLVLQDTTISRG
Sequence of SUMO-activating enzyme (Q9UBE0 whole entry): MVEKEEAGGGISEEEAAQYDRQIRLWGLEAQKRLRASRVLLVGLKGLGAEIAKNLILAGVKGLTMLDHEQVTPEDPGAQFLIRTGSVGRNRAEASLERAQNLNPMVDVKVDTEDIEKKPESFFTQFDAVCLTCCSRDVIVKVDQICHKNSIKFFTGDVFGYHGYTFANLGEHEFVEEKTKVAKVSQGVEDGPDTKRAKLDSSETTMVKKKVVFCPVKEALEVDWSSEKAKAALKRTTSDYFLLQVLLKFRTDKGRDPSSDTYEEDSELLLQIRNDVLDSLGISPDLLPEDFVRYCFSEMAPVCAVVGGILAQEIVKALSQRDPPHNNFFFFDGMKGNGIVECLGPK
Sequence of SUMO-activating enzyme (Q9UBT2 whole entry): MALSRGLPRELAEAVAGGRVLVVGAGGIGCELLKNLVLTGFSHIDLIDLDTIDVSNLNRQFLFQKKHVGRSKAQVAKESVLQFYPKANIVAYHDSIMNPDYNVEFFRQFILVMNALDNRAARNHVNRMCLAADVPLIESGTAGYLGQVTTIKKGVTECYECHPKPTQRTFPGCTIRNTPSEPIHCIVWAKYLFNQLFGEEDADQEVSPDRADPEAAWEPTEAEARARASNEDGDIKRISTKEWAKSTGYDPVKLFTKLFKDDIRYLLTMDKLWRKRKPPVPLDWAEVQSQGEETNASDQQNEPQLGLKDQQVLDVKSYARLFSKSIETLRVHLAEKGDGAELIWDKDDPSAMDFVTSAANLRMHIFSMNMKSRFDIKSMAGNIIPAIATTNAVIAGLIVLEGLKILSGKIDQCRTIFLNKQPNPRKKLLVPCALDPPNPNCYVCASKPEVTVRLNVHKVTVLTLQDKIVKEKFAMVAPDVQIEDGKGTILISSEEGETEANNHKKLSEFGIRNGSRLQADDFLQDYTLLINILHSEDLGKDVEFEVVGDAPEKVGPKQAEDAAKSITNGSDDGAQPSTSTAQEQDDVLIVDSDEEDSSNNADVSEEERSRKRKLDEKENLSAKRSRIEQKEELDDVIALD

## Cn1c(C(=O)NCc2cccs2)cc2oc3ccccc3c21
Cells [1]
  IC50: 18.4 µM (active)
Vero [2]
  CC50: > 25 µM (active)
[3]
  CC50: 3.9 µM (active)
H4
  EC50: > 120 µM (not active)
[4]
  EC50: 2.92 µM (active)
[5]
  EC50: > 120 µM (not active)
Vero [6]
  IC50: 1.32 µM (active)

## C[N+](C)(C)CCCNC(=O)c1ccc(C=NO)nc1
[7]
  IC50: 2.7 µM (active)
[8]
  IC50: 4.16 µM (active)

## CC[n+]1c(/C=C/C=C/N(C(C)=O)c2ccccc2)sc2ccccc21
[9]
  EC50: 19.7 µM (active)
[10]
  EC50: 2.21 µM (active)
[11]
  EC50: 20.8 µM (active)

## COc1ccc(-c2nnc(SCC(=O)Nc3cc(C)on3)[nH]2)cc1
SUMO-activating enzyme
  IC50: > 100 µM (inactive)

## Cc1ccccc1-c1cc(C(=O)Nc2sc(C)c(C)c2C(N)=O)c2ccccc2n1
INS1
  AC50: 5.87 µM (active)
[12]
  IC50: 2.76 µM (active)

## CC12CCC(C(=O)Nc3nc4ccc(Br)cc4s3)(OC1=O)C2(C)C (stereo not given)
[13]
  AC50: 1.36 µM (active)

## O=C(N=Nc1c(O)[nH]c2ccc([N+](=O)[O-])cc12)c1ccccc1[N+](=O)[O-]
Cells [1]
  IC50: 26.2 µM (active)

## Cc1nn(-c2nc3ccccc3s2)c(C)c1Oc1ccccc1O
Cells [1]
  IC50: 15.6 µM (active)
Vero [2]
  CC50: > 25 µM (active)
[3]
  CC50: 20.6 µM (active)
[14]
  AC50: 5.5 µM (active)
fMet-Leu-Phe receptor
  Ki: > 66.7 µM (inactive)
Vero [6]
  IC50: 11.7 µM (active)

## CCN(CCCNC(=O)CCc1nc(-c2ccc(OC)cc2)no1)c1cccc(C)c1
Cells [15]
  EC50: > 350 µM (not active)
Cells [16]
  EC50: > 350 µM (not active)
[10]
  EC50: 4.41 µM (active)

## CCN(c1ccccc1)S(=O)(=O)c1ccc(Cl)c(NC(=O)CSc2n[nH]c(N)n2)c1
Cells [1]
  IC50: 7.78 µM (active)
[3]
  CC50: 44.2 µM (active)

## CC(=O)c1ccc(C(=O)Nc2nnc(-c3ccc(Cl)cc3)o2)cc1
Cells [17]
  IC50: 0.47 µM (active)
[18]
  CC50: 13.1 µM (active)
H9c2
  IC50: > 79 µM (inactive)
[19]
  CC50: 8.62 µM (active)
[20]
  CC50: 7.9 µM (active)

## COc1ccc([N+](=O)[O-])cc1CSc1ccccn1
[7]
  IC50: 8.44 µM (active)
[8]
  IC50: 7.41 µM (active)

## CCCc1n(CC(O)COC2CCCCC2)c2ccccc2[n+]1CC (stereo not given)
[7]
  IC50: 3.26 µM (active)
[8]
  IC50: 3.93 µM (active)

## Cc1csc(NC(=O)CSc2nc3ccccc3s2)n1
[10]
  EC50: 7.68 µM (active)

## Cc1cc(C(C)(C)C)oc1C(=O)N(CC(=O)NC1CCCC1)Cc1ccccc1Cl
Mucolipin-3
  EC50: > 29.9 µM (not active)
Ion channel NompC
  EC50: > 29.9 µM (not active)
[21]
  IC50: 2.28 µM (not active)

## CCc1ccccc1/N=C1/S/C(=C/c2ccccc2OCC(=O)N2CCOCC2)C(=O)N1C
[12]
  IC50: 2.71 µM (active)

## COc1cc(/C=C2\Oc3cc(O)ccc3C2=O)ccc1O
[13]
  AC50: 0.641 µM (active)
[22]
  IC50: 26 µM (active)

## COc1ccc(/C=C/C(=O)O)cc1 [4-METHOXYCINNAMIC ACID]
[13]
  AC50: 21 µM (active)
